ChEMBL document CHEMBL3872240, “Simple N,N-dimethyl phenylsulfonamides show potent anticonvulsant effect in two standard epilepsy models” (Bioorg Med Chem Lett, 2017)
The source made the active and inactive calls. The calls are words filed in the database; no cut-off is given here.

Experiments:
Mus musculus [1] = assay: Neurotoxicity in Carworth Farm1 mouse assessed as somnolence up to 100 mg/kg, ip; format: toxicity, organism-based; conditions: in vivo
Mus musculus [2] = assay: Neurotoxicity in Carworth Farm1 mouse assessed as sedation up to 100 mg/kg, ip; format: toxicity, organism-based; conditions: in vivo
Mus musculus [3] = assay: Neurotoxicity in Carworth Farm1 mouse assessed as muscle relaxation up to 100 mg/kg, ip; format: toxicity, organism-based; conditions: in vivo
Mus musculus [4] = assay: Anticonvulsant activity in Carworth Farm1 mouse assessed as protection against maximal electroshock-induced seizures at 100 mg/kg, ip administered 30 mins prior to 60-Hz current induction; format: functional, organism-based
Mus musculus [5] = assay: Anticonvulsant activity in Carworth Farm1 mouse assessed as protection against maximal electroshock-induced seizures at 50 to 100 mg/kg, ip administered 30 mins prior to 60-Hz current induction; format: functional, organism-based
Mus musculus [6] = assay: Anticonvulsant activity in Carworth Farm1 mouse assessed as protection against maximal electroshock-induced seizures at 100 to 400 mg/kg, ip administered 30 mins prior to 60-Hz current induction; format: functional, organism-based
Mus musculus [7] = assay: Anticonvulsant activity in Carworth Farm1 mouse assessed as protection against subcutaneous pentylenetetrazole-induced seizures at 400 mg/kg, ip after 30 mins; format: functional, organism-based
Mus musculus [8] = assay: Anticonvulsant activity in Carworth Farm1 mouse assessed as protection against maximal electroshock-induced seizures at 400 mg/kg, ip administered 30 mins prior to 60-Hz current induction; format: functional, organism-based
Mus musculus [9] = assay: Anticonvulsant activity in Carworth Farm1 mouse assessed as protection against maximal electroshock-induced seizures at 50 mg/kg, ip administered 30 mins prior to 60-Hz current induction; format: functional, organism-based
Mus musculus [10] = assay: Anticonvulsant activity in Carworth Farm1 mouse assessed as protection against maximal electroshock-induced seizures at 25 mg/kg, ip administered 30 mins prior to 60-Hz current induction; format: functional, organism-based
Mus musculus [11] = assay: Anticonvulsant activity in ip dosed Carworth Farm1 mouse assessed as protection against maximal electroshock-induced seizures administered 30 mins prior to 60-Hz current induction; format: functional
Mus musculus [12] = assay: Anticonvulsant activity in ip dosed Carworth Farm1 mouse assessed as protection against subcutaneous pentylenetetrazole-induced seizures after 30 mins; format: functional; conditions: Carworth Farm1, 0.5 h
Mus musculus [13] = assay: Anticonvulsant activity in Carworth Farm1 mouse assessed as protection against subcutaneous pentylenetetrazole-induced seizures at 100 mg/kg, ip after 30 mins; format: functional, organism-based
[14] = Metabolic stability in rat liver microsomes assessed as amount of parent compound remaining after 30 mins; format: ADME; conditions: read-out: Stability

Row | Compound | Activity (Mus musculus [1]) | Activity (Mus musculus [2]) | Activity (Mus musculus [3]) | Activity (Mus musculus [4]) | Activity (Mus musculus [9]) | also measured
1 | CN(C)S(=O)(=O)c1cccc([N+](=O)[O-])c1 | Non-Toxic | Non-Toxic | Non-Toxic | Active | – | –
2 | CN(CCO)S(=O)(=O)c1cccc(Cl)c1 | Non-Toxic | Non-Toxic | Non-Toxic | – | – | –
3 | COc1cccc(S(=O)(=O)N(C)C)c1 | Non-Toxic | Non-Toxic | Non-Toxic | – | – | –
4 | CCNC(=O)C1=C(Cl)c2ccccc2S(=O)(=O)N1C | – | – | – | – | – | Activity (Mus musculus [5]): Active
5 | CN(C)S(=O)(=O)c1ccccc1Cl | Non-Toxic | Non-Toxic | Non-Toxic | Active | Active | Activity (Mus musculus [6]): Active; Activity (Mus musculus [7]): Active; Activity (Mus musculus [8]): Active
6 | CN(C)S(=O)(=O)c1cc(Cl)ccc1Cl | Non-Toxic | Non-Toxic | Non-Toxic | – | – | –
7 | CCCN(C)S(=O)(=O)c1cccc(Cl)c1 | Non-Toxic | Non-Toxic | Non-Toxic | – | – | –
8 | CN(C)S(=O)(=O)c1ccc(Cl)cc1 | Non-Toxic | Non-Toxic | Non-Toxic | Active | Active | Activity (Mus musculus [7]): Active; Activity (Mus musculus [10]): Active
9 | O=S(=O)(c1cccc(Cl)c1)N1CCCC1 | Non-Toxic | Non-Toxic | Non-Toxic | – | – | –
10 | CNS(=O)(=O)Cc1cccc(Cl)c1 | Non-Toxic | Non-Toxic | Non-Toxic | – | – | –
11 | CN(C)S(=O)(=O)c1cccc(Oc2ccccc2)c1 | Non-Toxic | Non-Toxic | Non-Toxic | – | – | –
12 | CN(C)S(=O)(=O)c1ccccc1 | Non-Toxic | Non-Toxic | Non-Toxic | Active | – | –
13 | Cc1cccc(S(=O)(=O)N(C)C)c1 | Non-Toxic | Non-Toxic | Non-Toxic | – | – | –
14 | NS(=O)(=O)Cc1noc2ccccc12 [ZONISAMIDE] | – | – | – | – | – | ED50 (Mus musculus [11]): 20 mg/kg; ED50 (Mus musculus [12]): > 500 mg/kg
15 | CN(C)S(=O)(=O)c1cccc(Br)c1 | Non-Toxic | Non-Toxic | Non-Toxic | Active | Active | –
16 | CN(C)S(=O)(=O)c1ccc(Cl)c(Cl)c1 | Non-Toxic | Non-Toxic | Non-Toxic | Active | – | –
17 | CC1(C)O[C@@H]2[C@@H](CO[C@@]3(COS(N)(=O)=O)OC(C)(C)O[C@@H]23)O1 [TOPIRAMATE] | – | – | – | – | – | ED50 (Mus musculus [11]): 33 mg/kg; ED50 (Mus musculus [12]): > 800 mg/kg
18 | CN(C)S(=O)(=O)c1cccc(N)c1 | Non-Toxic | Non-Toxic | Non-Toxic | – | – | –
19 | CN(C)S(=O)(=O)c1cccc(Cl)c1 | Non-Toxic | Non-Toxic | Non-Toxic | Active | Active | ED50 (Mus musculus [11]): 12 mg/kg; ED50 (Mus musculus [12]): 34 mg/kg; Activity (Mus musculus [13]): Active; Activity (Mus musculus [7]): Active; Activity (Mus musculus [10]): Active; remaining at 0.5 h [14]: 95%
20 | CN(C)S(=O)(=O)c1cccc(F)c1 | Non-Toxic | Non-Toxic | Non-Toxic | Active | Active | Activity (Mus musculus [13]): Active; Activity (Mus musculus [10]): Active
21 | CN(C)S(=O)(=O)c1cccc(OC(F)(F)F)c1 | Non-Toxic | Non-Toxic | Non-Toxic | Active | – | –
22 | CN(C)S(=O)(=O)c1cccc(C(F)(F)F)c1 | Non-Toxic | Non-Toxic | Non-Toxic | Active | – | Activity (Mus musculus [13]): Active
23 | CN(C)S(=O)(=O)c1cc(Cl)cc(Cl)c1 | Non-Toxic | Non-Toxic | Non-Toxic | Active | – | –
24 | CN(C)S(=O)(=O)c1cccc(C#N)c1 | Non-Toxic | Non-Toxic | Non-Toxic | Active | Active | –
25 | NS(=O)(=O)c1cccc(Cl)c1 | Non-Toxic | Non-Toxic | Non-Toxic | Active | Active | Activity (Mus musculus [10]): Active
26 | CCN(CC)S(=O)(=O)c1cccc(Cl)c1 | Non-Toxic | Non-Toxic | Non-Toxic | Active | Active | Activity (Mus musculus [7]): Active
27 | CNS(=O)(=O)c1cccc(Cl)c1 | Non-Toxic | Non-Toxic | Non-Toxic | Active | Active | Activity (Mus musculus [7]): Active; Activity (Mus musculus [10]): Active
